The source of these data is ChEMBL document CHEMBL1158285, “Constituents from the stem wood of Euphorbia quinquecostata with phorbol dibutyrate receptor-binding inhibitory activity” (J Nat Prod, 1996).

The IC50 is the midpoint of a concentration-inhibition curve.

The source made the active and inactive calls. The calls are words filed in the database; no cut-off is given here. Some results are limits rather than exact numbers.

A short description of experiment [1]: (§1) Displacement of [3H]PDBu from PKC in calf brain homogenate. The class given is tissue-based, Bos taurus.
For another experiment, the species on record is Bos taurus. Described as §1. It counts as tissue-based.

In turn, `CC1(C)[C@H](O)CC[C@]2(C)[C@@H]1CC[C@@]13CC[C@@H](C[C@H]12)[C@](O)(CO)C3` had an IC50 in experiment [1] of 73 µM.
In experiment [1], `CCCCCCCCCCCCCCCC(=O)OCC1=C[C@@H]2C(=O)[C@]3(C=C(C)[C@H](O)[C@@]3(O)[C@@H]1O)[C@H](C)C[C@@H]1[C@H]2[C@]1(C)CO` showed an IC50 of 0.023 µM.
Regarding `CCCCCCCCCCCCCCCC(=O)OCC1=C[C@@H]2C(=O)[C@]3(C=C(C)[C@H](OC(C)=O)[C@@]3(O)[C@@H]1OC(C)=O)[C@H](C)C[C@@H]1[C@H]2[C@]1(C)COC(C)=O`, the IC50 in experiment [1] was greater than 275 µM.
`CC1(C)C(=O)CC[C@]2(C)[C@@H]1CC[C@@]13CC[C@@H](C[C@H]12)[C@](O)(CO)C3` displayed a half-maximal inhibitory concentration (IC50) in experiment [1] of 66 µM.
Turning to `COc1cc(OC)c(C(=O)CO)c(O)c1C`, in the experiment filed under Bos taurus, the outcome was inactive.
`C=C1C[C@@]23CC[C@@H]4C(C)(C)C(=O)CC[C@@]4(C)[C@@H]2C[C@@H]1[C@H](O)C3=O` gave a concentration for half-maximal inhibition (IC50) in experiment [1] greater than 630 µM.
As for `CCCCCCCCCCCCCCCC(=O)OCC1=C[C@@H]2C(=O)[C@]3(C=C(C)[C@H](O)[C@@]3(O)[C@@H]1O)[C@H](C)C[C@@H]1[C@H]2C1(C)C`, the IC50 in experiment [1] worked out at 5.3 µM.
